Assay results taken from ChEMBL document CHEMBL1156705, “Part 1: Effect of vitamin C on the biological activity of two euryfurylbenzoquinones on TLT, a murine hepatoma cell line” (2008).

Tests used:
Assay type in all cases: functional
[1] = Induction of apoptosis in mouse TLT cells assessed as effect on caspase 3 activity at 50 ug/ml after 24 hrs by fluorometric assay
[2] = Cytotoxicity against mouse TLT cells assessed as decrease in intracellular ATP level at 1 to 50 ug/ml after 24 hrs by bioluminescence assay relative to control; design: scale not given: the % may be the effect or the level left
[3] = Induction of apoptosis in mouse TLT cells assessed as increase in caspase 3 activity at 50 ug/ml after 24 hrs by fluorometric assay relative to basal level in presence of 2 mM vitamin C
[4] = Induction of apoptosis in mouse TLT cells assessed as effect on caspase 3 activity at 100 ug/ml after 24 hrs by fluorometric assay in presence of 2 mM vitamin C
[5] = Cytotoxicity against mouse TLT cells assessed as cytoplasmic LDH release at 50 ug/ml after 24 hrs in presence of 2 mM vitamin C
[6] = Cytotoxicity against mouse TLT cells assessed as cytoplasmic LDH release at 50 ug/ml after 24 hrs
[7] = Cytotoxicity against mouse TLT cells assessed as decrease in intracellular ATP level at 1 to 50 ug/ml after 24 hrs by bioluminescence assay relative to control in presence of 2 mM vitamin C; design: scale not given: the % may be the effect or the level left
[8] = Induction of apoptosis in mouse TLT cells assessed as effect on caspase 3 activity at 1 ug/ml after 24 hrs by fluorometric assay
[9] = Induction of apoptosis in mouse TLT cells assessed as increase in caspase 3 activity at 50 ug/ml after 24 hrs by fluorometric assay relative to basal level
[10] = Cytotoxicity against mouse TLT cells assessed as decrease in intracellular reduced glutathione level at 1 to 50 ug/ml after 24 hrs by ortho-phthalaldehyde method relative to control; design: scale not given: the % may be the effect or the level left
[11] = Induction of apoptosis in mouse TLT cells assessed as effect on caspase 3 activity at 50 ug/ml after 24 hrs by fluorometric assay in presence of 2 mM vitamin C
[12] = Cytotoxicity against mouse TLT cells assessed as decrease in intracellular reduced glutathione level at 1 to 50 ug/ml after 24 hrs by ortho-phthalaldehyde method relative to control in presence of 2 mM vitamin C; design: scale not given: the % may be the effect or the level left
[13] = Induction of apoptosis in mouse TLT cells assessed as effect on caspase 3 activity at 1 ug/ml after 24 hrs by fluorometric assay in presence of 2 mM vitamin C
[14] = Induction of apoptosis in mouse TLT cells assessed as effect on caspase 3 activity at 100 ug/ml after 24 hrs by fluorometric assay
[15] = Cytotoxicity against mouse TLT cells assessed as decrease in intracellular reduced glutathione level at 50 ug/ml after 24 hrs by ortho-phthalaldehyde method relative to control in presence of 2 mM vitamin C; design: scale not given: the % may be the effect or the level left
[16] = Cytotoxicity against mouse TLT cells assessed as cytoplasmic LDH release at 1 ug/ml after 24 hrs
[17] = Cytotoxicity against mouse TLT cells assessed as decrease in intracellular ATP level at 50 ug/ml after 24 hrs by bioluminescence assay relative to control in presence of 2 mM vitamin C; design: scale not given: the % may be the effect or the level left

CC1(C)CCCC2(C)c3coc(C4=CC(=O)C=CC4=O)c3CCC12 (centres undefined)
Activity [1]: 37.2 mU
Activity [2]: 40%
Activity [3]: 3.5
Activity [4]: 57.8 mU
Activity [5]: 28%
Activity [6]: 28%
Activity [7]: 40%
Activity [8]: 21.3 mU
Activity [9]: 2.5
Activity [10]: 60%
Activity [11]: 25.6 mU
Activity [12]: 60%
Activity [13]: 15.1 mU
Activity [14]: 51.1 mU

CC1(C)CCCC2(C)c3coc(C4=C([N+](=O)[O-])C(=O)C=CC4=O)c3CCC12 (centres undefined)
Activity [1]: 27.4 mU
Activity [15]: 25%
Activity [4]: 1 mU
Activity [5]: 60%
Activity [8]: 31.9 mU
Activity [16]: 28%
Activity [11]: 10.7 mU
Activity [13]: 12.8 mU
Activity [17]: 50%
Activity [14]: 22.5 mU
